In patent US20250140406A1, “CLASSIFYING TUMORS AND PREDICTING RESPONSIVENESS” (Oncocyte Corporation, priority 2022, published 2025):

Legend:
[1] = test system: cancer cell lines classified IM, MSL, M; assay: PRISM screen compound sensitivity correlated with IM, MSL and M subtype of cell lines (101 gene signature); assay type: cell-based; conditions: for IM Corr test: correlation of PRISM compound sensitivity with IM subtype correlation; for M Corr test: correlation of PRISM compound sensitivity with M subtype correlation; for MSL Corr test: correlation of PRISM compound sensitivity with MSL subtype correlation; for TNBCType train: 101 gene signature
[2] = test system: cancer cell lines, DetermaIO classes; assay: Association of PRISM compound sensitivity with DetermaIO (DTIO) cell line classes; assay type: cell-based
[3] = subtype (IM, MSL or M) assigned to the compound by negative correlation of PRISM sensitivity with subtype, training cell set (371 cell lines)
[4] = correlation of PRISM compound sensitivity with DTIO (DetermaIO), test cell set (188 cell lines)
[5] = correlation of PRISM compound sensitivity with DTIO (DetermaIO), training cell set (371 cell lines)
[6] = correlation of PRISM compound sensitivity with DTIO, test cell set
[7] = correlation of PRISM compound sensitivity with DTIO, training cell set
[8] = association of compound sensitivity with DetermaIO classes, test data set
[9] = association of compound sensitivity with DetermaIO classes, training data set
[10] = subtype (IM, MSL or M) with which compound sensitivity is negatively correlated, training cell set (371 cell lines)

Row | Structure (SMILES) | DTIO Corr test [2, 8] | DTIO Corr train [2, 9] | other results
1 | c1ccc2sc(N3CCN(Cc4ccc5c(c4)OCO5)CC3)nc2c1 | – | – | IM Corr test ([1]; test cell set (188 cell lines)): 0.03417; M Corr test ([1]; test cell set (188 cell lines)): −0.06017; MSL Corr test ([1]; test cell set (188 cell lines)): −0.05087; TNBCType train [1, 3]: MSL; DTIO Corr test [2, 4]: 0.0115; DTIO Corr train [2, 5]: 0.00776
2 | CCCCC/C=C\C=C\CCCCCCCCC(=O)O | – | – | IM Corr test ([1]; test cell set): −0.1138; M Corr test ([1]; test cell set): 0.05243; MSL Corr test ([1]; test cell set): 0.00293; DTIO Corr test [2, 6]: −0.07628; DTIO Corr train [2, 7]: −0.1009
3 | CN(N=O)C(=O)N[C@H]1C(O)O[C@H](CO)[C@@H](O)[C@@H]1O (mixture of isomers) [streptozotocin] | – | – | IM Corr test ([1]; test cell set): −0.07058; M Corr test ([1]; test cell set): 0.07616; MSL Corr test ([1]; test cell set): −0.07788; TNBCType train ([1]; subtype (IM, MSL or M) with which PRISM compound sensitivity is negatively correlated, training cell set): MSL; DTIO Corr test [2, 6]: −0.06131; DTIO Corr train [2, 7]: 0.03601
4 | CCNCCCNCCCCNCCCNCC [1,12-Besm] | – | – | IM Corr test ([1]; test cell set (188 cell lines)): −0.00575; M Corr test ([1]; test cell set (188 cell lines)): −0.0837; MSL Corr test ([1]; test cell set (188 cell lines)): −0.1322; DTIO Corr test [2, 6]: 0.02016; DTIO Corr train [2, 7]: 0.07515
5 | C[C@@]1(O)[C@H](O)[C@@H](CO)O[C@H]1n1cnc2c(NC3CCCC3)nc(Cl)nc21 [2′-MeCCPA] | – | – | IM Corr test ([1]; test cell set (188 cell lines)): −0.06271; M Corr test ([1]; test cell set (188 cell lines)): 0.03452; MSL Corr test ([1]; test cell set (188 cell lines)): −0.04413; TNBCType train [1, 3]: MSL; DTIO Corr test [2, 4]: −0.0753; DTIO Corr train [2, 5]: −0.01341
6 | Nc1nccc2c1ncn2C1C=C(CO)C(O)C1O (stereo not shown) [3-deazaneplanocin-A] | – | – | IM Corr test ([1]; test cell set (188 cell lines)): −0.02722; M Corr test ([1]; test cell set (188 cell lines)): 0.1507; MSL Corr test ([1]; test cell set (188 cell lines)): 0.09034; DTIO Corr test [2, 4]: −0.05245; DTIO Corr train [2, 5]: −0.1309
7 | O=c1[nH]cnc2ccccc12 [4-HQN] | – | – | IM Corr test ([1]; test cell set (188 cell lines)): −0.06704; M Corr test ([1]; test cell set (188 cell lines)): 0.04595; MSL Corr test ([1]; test cell set (188 cell lines)): 0.1063; DTIO Corr test [2, 4]: 0.05447; DTIO Corr train [2, 5]: −0.1475
8 | COc1ccc(C2=N[C@@H](c3ccc(Cl)cc3)[C@@H](c3ccc(Cl)cc3)N2C(=O)N2CCNC(=O)C2)c(OC(C)C)c1 [A12230535] | 0.1503 | 0.1606 | –
9 | Cc1nccn1CC1CCc2c(c3ccccc3n2C)C1=O (stereo not shown) [A19736161] | −0.1124 | −0.07634 | –
10 | COC(=O)N[C@@H](C)CNc1nccc(-c2cn(C(C)C)nc2-c2cc(Cl)cc(NS(C)(=O)=O)c2F)n1 [A56085258] | 0.1442 | 0.09535 | –
11 | Cc1ccc(NC(=O)c2ccc(CN3CC[C@H](N(C)C)C3)c(C(F)(F)F)c2)cc1Nc1nccc(-c2cncnc2)n1 [A75975749] | 0.1658 | 0.1191 | –
12 | O=C(c1cc(Cc2n[nH]c(=O)c3ccccc23)ccc1F)N1CCN(C(=O)C2CC2)CC1 [K02113016] | 0.06404 | 0.02661 | –
13 | Cc1cc(CN2CCN(c3c(Br)cnc4nc(-c5ccc(N6CCN(C)CC6)cc5)[nH]c34)CC2)no1 [K03289018] | −0.1396 | −0.02552 | –
14 | Cc1ccc(NC(=O)c2cccc(C(C)(C)C#N)c2)cc1Nc1ccc2ncn(C)c(=O)c2c1 [K05804044] | 0.3247 | 0.1908 | –
15 | CC(C)(C)c1nc(-c2cccc(NS(=O)(=O)c3c(F)cccc3F)c2F)c(-c2ccnc(N)n2)s1 [K09951645] | 0.1439 | 0.04313 | –
16 | Cc1cc(C2CCCCC2)n(O)c(=O)c1 [K13044802] | −0.06749 | −0.1574 | –
17 | O=Nc1ccc(O)c2ncccc12 [K13169950] | −0.00012 | 0.09356 | –
18 | N=C(N)c1ccc(OCCCCCOc2ccc(C(=N)N)cc2)cc1 [K13183738] | 0.14 | 0.2157 | –
19 | Cc1occc(=O)c1[O-].Cc1occc(=O)c1[O-].[O]=[V+2] [K16180792] | 0.09031 | 0.1485 | –

Row | Structure (SMILES) | DTIO Corr test [2, 8] | DTIO Corr train [2, 9] | other results
20 | CS(=O)(=O)CCNCc1ccc(-c2ccc3ncnc(Nc4ccc(OCc5cccc(F)c5)c(Cl)c4)c3c2)o1 [K19687926] | −0.0302 | −0.08369 | –
21 | COc1cc2nc(N3CCCN(C)CC3)nc(NC3CCN(Cc4ccccc4)CC3)c2cc1OC [K26818574] | 0.2463 | 0.08377 | –
22 | CNC(=O)c1ccccc1Sc1ccc2c(/C=C/c3ccccn3)n[nH]c2c1 [K29905972] | 0.004812 | 0.0816 | –
23 | N#Cc1c(Oc2ccc(F)c(NC(=O)Cc3cccc(C(F)(F)F)c3)c2)ccc2nc(NC(=O)C3CC3)sc12 [K31866293] | 0.2089 | 0.08489 | –
24 | C=CC(=O)Nc1cc(Nc2nccc(-c3cn(C)c4ccccc34)n2)c(OC)cc1N(C)CCN(C)C [K42805893] | 0.0753 | −0.06781 | –
25 | C[C@@H]1COC(Nc2ccc3ncnc(Nc4ccc(OCc5nccs5)c(Cl)c4)c3c2)=N1 [K46386702] | −0.03109 | −0.05992 | –
26 | COc1cc2nccc(Oc3ccc(NC(=O)Nc4ccc(F)cc4F)c(F)c3)c2cc1OC [K47150025] | 0.03732 | 0.02512 | –
27 | NC(=O)c1cccc2cn(-c3ccc([C@@H]4CCCNC4)cc3)nc12 [K54955827] | −0.03477 | 0.03577 | –
28 | COc1cc(N2CCC(N3CCN(C)CC3)CC2)ccc1Nc1ncc(Cl)c(Nc2ccccc2P(C)(C)=O)n1 [K56981171] | 0.04024 | −0.1728 | –
29 | OCCn1cc(-c2ccc3c(c2)CC/C3=N\O)c(-c2ccncc2)n1 [K67578145] | 0.1581 | 0.1101 | –
30 | O=c1cc(-c2ccccc2)oc2cc(O)c(O)c(O)c12 [K72327355] | −0.04244 | −0.1442 | –
31 | Nc1nccc2c1ncn2C1C=C(CO)C(O)C1O (stereo not shown) [K77791657] | −0.05245 | −0.1309 | –
32 | CC[C@@]1(O)C(=O)OCc2c1cc1n(c2=O)Cc2cc3c([N+](=O)[O-])cccc3nc2-1 [K79821389] | −0.06417 | −0.1178 | –
33 | C=C1/C(=C\C=C2/CCC[C@]3(C)[C@@H]([C@H](C)OCCC(C)(C)O)CC[C@@H]23)C[C@@H](O)C[C@@H]1O [K81332461] | −0.00506 | −0.07504 | –
34 | Cn1c(Nc2ccc(C(F)(F)F)cc2)nc2cc(Oc3ccnc(-c4ncc(C(F)(F)F)[nH]4)c3)ccc21 [K93123848] | 0.1916 | 0.1011 | –
35 | O=C1[C@H](Cc2ccc(O)cc2)N2C(=O)CCN(C(=O)NCc3ccccc3)[C@H]2CN1Cc1cccc2ccccc12 [K94455792] | 0.1635 | 0.1783 | –
36 | CC[C@]1(O)C[C@@H]2CN(CCc3c([nH]c4ccccc34)[C@@](C(=O)OC)(c3cc4c(cc3OC)N(C)[C@H]3[C@@](O)(C(=O)OC)[C@H](OC(C)=O)[C@]5(CC)C=CCN6CC[C@]43[C@@H]65)C2)C1 [vinblastine] | – | – | TNBCType train [1, 10]: MSL
37 | CC[C@]1(O)C[C@@H]2CN(CCc3c([nH]c4ccccc34)[C@@](C(=O)OC)(c3cc4c(cc3OC)N(C)[C@H]3[C@@](O)(C(N)=O)[C@H](O)[C@]5(CC)C=CCN6CC[C@]43[C@@H]65)C2)C1 [vindesine] | – | – | TNBCType train [1, 3]: MSL
38 | CC(c1cc2ccccc2s1)N(O)C(N)=O (stereo not shown) [zileuton] | – | – | TNBCType train [1, 10]: MSL
